One test deals with gastric secretion. Description: Antisecretory test (pyloric ligation, gastric secretion volume). The class given is in vivo, Wistar rats (adult female). The settings on record: Rattus norvegicus; orally 1 hour prior to pyloric ligation or subcutaneously immediately after; 5 h after ligation; maximum dosage 10 mg./kg.; read-out: Antisecretory Activity ED50 (50% reduction in the volume of gastric secretion). How it is done:
Adult female Wistar rats weighing 140 to 160 g. were starved for 24 hours prior to the test. The animals were anaesthetized with ether, shaved on the abdomen, and a small midline incision made. The pylorus was exposed, ligated, and the wound subsequently closed with wound clips. The animals were treated with the test compound administered either orally 1 hour prior to pyloric ligation or subcutaneously immediately after ligation. The test compound was administered in distilled water or 0.5% methyl cellulose. Six animals were used for each treatment. Five hours following the ligation, the animals were sacrificed, the stomachs were carefully removed and opened, and the gastric contents measured for volume and titratable acidity. […] A maximum dosage of 10 mg./kg. was used for the test compounds.

In test [1] the test system is charcoal entering the cecum. Description: Antimotility test (charcoal entering the cecum). The format is in vivo, mice (adult male). Conditions: Mus musculus; oral, 1 h before charcoal; examined 3.5 h after charcoal; maximum dosage 30 mg./kg.; read-out: Antimotility ED50 (prevented the charcoal from entering the cecum in 50% of the treated mice).
Protocol: Adult male mice weighing in the range of 20 to 30 g. were starved for 24 hours prior to the test. The animals were then treated orally with the test compound dissolved in water or suspended in methyl cellulose. One hour later, each animal was dosed with 0.2 ml. of a charcoal suspension consisting of 5% activated charcoal suspended in 0.25% methyl cellulose. The animals were sacrificed 3.5 hours after the charcoal administration and their cecums examined for the presence or absence of charcoal. […] A maximum dosage of 30 mg./kg. was used.
Another test has as its system diarrhea. Description: Antidiarrheal test (castor oil diarrhea). The format is in vivo, Swiss-Webster mice (adult male). Conditions: Mus musculus; oral, 1 h before castor oil; diarrhea noted 3 h later; maximum 30 mg./kg.; read-out: Antidiarrheal ED50 (inhibited diarrhea in 50% of the treated mice). How it is done:
In this test adult male Swiss-Webster mice weighing 30 to 40 g. were employed, using 6 mice per treatment. The test compound was administered orally in a dosage series with a maximum of 30 mg./kg. either in water if soluble or else in 0.5% methyl cellulose. One hour after treatment, each animal received a single dose of 0.3 ml. of castor oil, administered orally. The animals were then individually caged and provided food and water.

Molecules are shown by their SMILES. Where only a bound is given, the exact number is not on record here.

With `Cc1ccc(NC(=S)N(C)C)c(C)c1` [AB], the values for the ED50 (with gastric secretion; in test [1]; with diarrhea) were above 10 mg/kg, 4.4 mg/kg and 3.8 mg/kg, respectively.
With `Cc1cccc(C)c1NC(=S)NCCN` [AI], the median effective dose (ED50) in the test with gastric secretion is above 10 mg/kg; in test [1] it was 15.5 mg/kg; in the test on diarrhea it was 11.5 mg/kg.
On the same counts, the results for `OCCNC(=S)Nc1ccc(Cl)cc1Cl` [P] are above 10 mg/kg, above 30 mg/kg and above 30 mg/kg.
On the same counts, the results for `Cc1ccc(NC(=S)NCCS)c(C)c1` [AK] are above 10 mg/kg, 15 to 30 mg/kg and above 30 mg/kg.
Regarding `Cc1cc(Cl)ccc1NC(=S)NCCO` [L], the ED50 in the test on gastric secretion was 1 to 3 mg/kg; in test [1] it was 15 to 30 mg/kg; in the test with diarrhea, below 30 mg/kg.
In the same order, the values of `Cc1ccc(NC(=S)N(CCO)CCO)c(C)c1` [AM] are above 10 mg/kg, above 30 mg/kg and above 30 mg/kg.
On the same counts, the results for `Cc1ccc(Cl)cc1NC(=S)NCCO` [M] are above 10 mg/kg, 7.4 mg/kg and 15 to 30 mg/kg.

The ED50 is the dose that gives a 50% effect, or the effect in half of the subjects.
